# Measured values: patent publication US6762202B2, “Infrared thermography and methods of use” (NitroMed, Inc., priority 2000, dated 2004)
# Experiments:
# labia and clitoris = assay: Infrared thermographic measurement of labial/clitoral temperature after topical administration; format: in vivo, Female white New Zealand rabbits; settings: for temperature of the labia and clitoris following the application: 50 μL
# Method: Female white New Zealand rabbits were anaesthetized with pentobarbitol sodium and placed in a supine position on a warming pad. The warming pad was connected to a temperature control unit to maintain the core (rectal) temperature to 38° C. The labia and clitoris were exposed and kept in position by taping the surrounding skin to the nearby abdominal area. The infrared camera (THERMACAM® SC 1000, Inframetrics Inc., North Billerica, Mass.) was focused on the labia and clitoris and the animal was covered with a chamber to maintain the heat loss due to air movement.
# After a steady baseline temperature was maintained and recorded for at least 10 minutes the compound (50 μL) was applied to the surface of the labia and clitoris using a syringe and 27 G needle. The compound was formulated in a mixture of dimethyl sulfoxide (25%) and poly(ethylene glycols) (75%). The poly(ethylene glycols) was a mixture of poly(ethylene glycol) 1450 and poly(ethylene glycol) 400 in a ratio of 1:9 respectively.
# The images from the infrared camera were electronically transferred to a PC computer and analyzed using TherMonitor 95, version 1.61 (Thermoteknix System Ltd., Mount pleasant,Cambridge, U. K.). Various color scales in the visible wave length are used to depict the temperature change of the recorded images.
# labial blood flow = assay: Laser doppler measurement of labial/clitoral blood flow after topical administration; format: in vivo, Female white New Zealand rabbits; settings: 5% or 10%, 50 μL topical in MIGLYOL; laser doppler probe; FIG. 6
# Method: Female white New Zealand rabbits were anaesthetized with Ketamine/Xylazine mixture and placed in supine position. A laser doppler probe (LASERFLO, BPM 403, Vasamedics, Inc., Minn.) was placed at the labium surface, and after steady baseline blood flow was maintained and recorded for at least 10 minutes, Example 5 (5%, 50 μL), 10% of Example 7 (10%, 50 μL), or vehicle alone (50 μL, MIGLYOL®) was applied to the surface of the labia and clitoris. […] The time course for the increase in blood flow (FIG. 6) was very similar to the time course for the increase in labial clitoral temperature (FIG. 5).
structure (smiles),measurement,setting,value
"CC(C)(CN1C(=O)C2C3C=CC(C3)C2C1=O)SN=O (centres unmarked) [Example 1, 4-Aza-4-(2-methyl-2-(nitrosothio)propyl)tricyclo(5.2.1.0<2,6>)dec-8-ene-3,5-dione]",temperature of the labia and clitoris following the application,"labia and clitoris; 5% topical, ~32° C. prior to application, FIG. 3, vehicle gave no increase",35 °C
"CC(C)(SN=O)C1COC(=O)N1 (centres unmarked) [Example 2, 4-(1-Methyl-1-(nitrosothio)ethyl)-1,3-oxazolidin-2-one]",temperature of the labia and clitoris following the application,"labia and clitoris; 10% topical, ~32° C. prior to application, FIG. 4",36 °C
same,melting point,,65 °C
"N[C@@H](CCC(=O)N[C@@H](CSN=O)C(=O)NCC(=O)O)C(=O)O [Example 7, N-(N-L-y-glutamyl-S-Nitroso-L-cysteinyl)glycine]",change of labial clitoral temperature,"labia and clitoris; 2.5%, 50 μL topical in MIGLYOL, FIG. 5",slight and transient increase
same,increase of temperature of the labia and clitoris,"labia and clitoris; 5%, 50 μL topical in MIGLYOL, FIG. 5",3.5 °C
same,increase of temperature of the labia and clitoris,"labia and clitoris; 10%, 50 μL topical in MIGLYOL, FIG. 5",5.5 °C
same,duration of sustained increase in labial blood flow,labial blood flow,> 60 min
same,increase in labial blood flow as compared to the baseline,labial blood flow,4 fold
"CC(C)CON=O [isobutyl nitrite, reference compound]",temperature of the labia and clitoris following the application,"labia and clitoris; 10% topical, ~30° C. prior to application, FIG. 1, vehicle gave no increase",32 °C
same,temperature of the labia and clitoris following the application,"labia and clitoris; 20% topical, ~31° C. prior to application, FIG. 2, vehicle gave no increase",34 °C
"CNC[C@H](O)c1cccc(O)c1 [phenylephrine, reference compound]",temperature after addition of the vasoconstrictor (decrease),"labia and clitoris; 10% applied 60 minutes after Example 2 (10%), monitored for 5 minutes, decrease from 36° C., FIG. 4",32 °C
